Laboratory results from patent US20230391760A1, “HETEROCYCLIC GLP-1 AGONISTS” (Gasherbrum Bio, Inc., priority 2020, published 2023).

Molecular target: GLP-1 Receptor (Homo sapiens, UniProt P43220)
Assay: GLP-1R agonist cAMP stimulation assay (HEK293/GLP1R/CRE-LUC cells, cAMP dynamic 2 Kit)
Assay type: cell-based
Details: HEK293/CRE-Luc cell line stably expressing the GLP-1 Receptor, 30 min at 37° C.
In short: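 HEK293 cells stably expressing human GLP-1R with CRE-luciferase, 1000 cells/well in DPBS with 0.5 mM IBMX and 0.1% BSA, treated with compound in 1/2-log serial dilution for 30 min at 37 °C. cAMP then detected by HTRF (cAMP-d2 plus anti-cAMP cryptate), 1 h at room temperature in the dark.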

Chain of GLP-1 Receptor (P43220 24-463, species assumed): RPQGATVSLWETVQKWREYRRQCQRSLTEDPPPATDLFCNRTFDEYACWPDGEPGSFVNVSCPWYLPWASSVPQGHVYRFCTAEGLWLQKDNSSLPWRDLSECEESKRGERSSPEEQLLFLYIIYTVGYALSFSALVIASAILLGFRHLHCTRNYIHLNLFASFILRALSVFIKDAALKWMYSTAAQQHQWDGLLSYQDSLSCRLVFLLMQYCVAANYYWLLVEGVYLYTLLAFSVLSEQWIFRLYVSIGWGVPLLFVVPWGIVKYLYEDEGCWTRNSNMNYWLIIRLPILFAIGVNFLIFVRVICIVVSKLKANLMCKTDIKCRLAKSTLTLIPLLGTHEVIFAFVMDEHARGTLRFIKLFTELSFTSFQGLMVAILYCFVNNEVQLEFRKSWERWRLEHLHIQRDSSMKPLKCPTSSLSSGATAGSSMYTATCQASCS

| SMILES | EC50 |
| --- | --- |
| Cn1cc(-c2ccc3c(c2)nc(CN2CCC(c4cccc5c4OC(C)(c4ccc(Cl)cc4F)O5)CC2)n3C[C@@H]2CCO2)nn1 (stereo partly drawn) [Compound 238a, 2-((4-(2-(4-chloro-2-fluorophenyl)-2-methylbenzo[d][1,3]dioxol-4-yl)piperidin-1-yl)methyl)-5-(1-methyl-1H-1,2,3-triazol-4-yl)-1-(((S)-oxetan-2-yl)methyl)-1H-benzo[d]imidazole] | 0.12 nM |
| CC(=O)Nc1ccc2c(c1)nc(CN1CCC(c3cccc4c3OC(C)(c3ccc(Cl)cc3F)O4)CC1)n2C[C@@H]1CCO1 (stereo partly drawn) [Compound 240a, N-(2-((4-(2-(4-chloro-2-fluorophenyl)-2-methylbenzo[d][1,3]dioxol-4-yl)piperidin-1-yl)methyl)-1-(((S)-oxetan-2-yl)methyl)-1H-benzo[d]imidazol-5-yl)acetamide] | 1.1 nM |
| Fc1cc(Cl)ccc1COc1ncc(F)c(C2=CCC(Cc3nc4cc(-c5nnn[nH]5)ccc4n3C[C@@H]3CCO3)CC2)n1 (stereo partly drawn) [Compound 241a, 2-((4-(2-((4-chloro-2-fluorobenzyl)oxy)-5-fluoropyrimidin-4-yl)cyclohex-3-en-1-yl)methyl)-1-(((S)-oxetan-2-yl)methyl)-5-(1H-tetrazol-5-yl)-1H-benzo[d]imidazole] | 0.32 nM |
| O=c1[nH]c(-c2ccc3c(c2)nc(CC2CC=C(c4nc(OCc5ccc(Cl)cc5F)ncc4F)CC2)n3C[C@@H]2CCO2)no1 (stereo partly drawn) [Compound 242a, 3-(2-((4-(2-((4-chloro-2-fluorobenzyl)oxy)-5-fluoropyrimidin-4-yl)cyclohex-3-en-1-yl)methyl)-1-(((S)-oxetan-2-yl)methyl)-1H-benzo[d]imidazol-5-yl)-1,2,4-oxadiazol-5(4H)-one] | 0.36 nM |
| CC1(c2ccc(Cl)cc2F)Oc2cccc(C3CCN(Cc4nc5cc(-c6nnc(C(F)F)[nH]6)cnc5n4C[C@@H]4CCO4)CC3)c2O1 (stereo partly drawn) [Compound 244a, 4-[2-(4-chloro-2-fluorophenyl)-2-methyl-2H-1,3-benzodioxol-4-yl]-1-({6-[5-(difluoromethyl)-4H-1,2,4-triazol-3-yl]-3-{[(2S)-oxetan-2-yl]methyl}-3H-imidazo[4,5-b]pyridin-2-yl}methyl)piperidine] | 0.14 nM |
| CC1(c2ccc(Cl)cc2F)Oc2cccc(C3CCN(Cc4nc5cc(-c6nnc(C(F)(F)F)[nH]6)cnc5n4C[C@H]4CCCO4)CC3)c2O1 (stereo partly drawn) [Compound 245a, 4-[2-(4-chloro-2-fluorophenyl)-2-methyl-2H-1,3-benzodioxol-4-yl]-1-[(3-{[(2R)-oxolan-2-yl]methyl}-6-[5-(trifluoromethyl)-4H-1,2,4-triazol-3-yl]-3H-imidazo[4,5-b]pyridin-2-yl)methyl]piperidine] | 2.6 nM |
| CC1(c2ccc(Cl)cc2F)Oc2cccc(C3CCN(Cc4nc5cc(-c6nnc(C(F)(F)F)[nH]6)cnc5n4C[C@@H]4CCCO4)CC3)c2O1 (stereo partly drawn) [Compound 246a, 4-[2-(4-chloro-2-fluorophenyl)-2-methyl-2H-1,3-benzodioxol-4-yl]-1-[(3-{[(2S)-oxolan-2-yl]methyl}-6-[5-(trifluoromethyl)-4H-1,2,4-triazol-3-yl]-3H-imidazo[4,5-b]pyridin-2-yl)methyl]piperidine] | 0.23 nM |
| CC1(c2ccc(Cl)cc2F)Oc2cccc(C3CCN(Cc4nc5cc(-c6nnc(C(F)F)[nH]6)c(F)cc5n4C[C@@H]4CCO4)CC3)c2O1 (stereo partly drawn) [Compound 249a, 2-({4-[2-(4-chloro-2-fluorophenyl)-2-methyl-2H-1,3-benzodioxol-4-yl]piperidin-1-yl}methyl)-5-[5-(difluoromethyl)-4H-1,2,4-triazol-3-yl]-6-fluoro-1-{[(2S)-oxetan-2-yl]methyl}-1H-1,3-benzodiazole] | 0.27 nM |
| CC1(c2ccc(Cl)cc2F)Oc2cccc(C3CCN(Cc4nc5cc(-c6cn(CCC(=O)O)nn6)ccc5n4C[C@@H]4CCO4)CC3)c2O1 (stereo partly drawn) [Compound 251a, 3-{4-[2-({4-[2-(4-chloro-2-fluorophenyl)-2-methyl-2H-1,3-benzodioxol-4-yl]piperidin-1-yl}methyl)-1-{[(2S)-oxetan-2-yl]methyl}-1H-1,3-benzodiazol-5-yl]-1H-1,2,3-triazol-1-yl}propanoic acid] | 0.11 nM |
| CC1(c2ccc(Cl)cc2F)Oc2cccc(C3CCN(Cc4nc5cc(-c6nnc(S(C)(=O)=O)[nH]6)ccc5n4C[C@@H]4CCO4)CC3)c2O1 (stereo partly drawn) [Compound 253a, 2-({4-[2-(4-chloro-2-fluorophenyl)-2-methyl-2H-1,3-benzodioxol-4-yl]piperidin-1-yl}methyl)-5-(5-methanesulfonyl-4H-1,2,4-triazol-3-yl)-1-{[(2S)-oxetan-2-yl]methyl}-1H-1,3-benzodiazole] | 0.65 nM |
| CC1(c2ccc(Cl)cc2)Oc2cccc(C3=CCN(Cc4nc5cc(-c6nnc(C(F)(F)F)[nH]6)ccc5n4C[C@@H]4CCO4)CC3)c2O1 (stereo partly drawn) [Compound 255a, 2-({4-[2-(4-chlorophenyl)-2-methyl-2H-1,3-benzodioxol-4-yl]-1,2,3,6-tetrahydropyridin-1-yl}methyl)-1-{[(2S)-oxetan-2-yl]methyl}-5-[5-(trifluoromethyl)-4H-1,2,4-triazol-3-yl]-1H-1,3-benzodiazole] | 0.24 nM |
| CC1(c2ccc(Cl)cc2F)Oc2cccc(C3=CCN(Cc4nc5cc(-c6nnc(C(F)(F)F)[nH]6)ccc5n4C[C@@H]4CCO4)CC3)c2O1 (stereo partly drawn) [Compound 256a, 2-({4-[2-(4-chloro-2-fluorophenyl)-2-methyl-2H-1,3-benzodioxol-4-yl]-1,2,3,6-tetrahydropyridin-1-yl}methyl)-1-{[(2S)-oxetan-2-yl]methyl}-5-[5-(trifluoromethyl)-4H-1,2,4-triazol-3-yl]-1H-1,3-benzodiazole] | 0.23 nM |
| CC1(c2ccc(F)cc2)Oc2cccc(C3CCN(Cc4nc5cc(-c6nnc(C(F)(F)F)[nH]6)ccc5n4C[C@@H]4CCO4)CC3)c2O1 (stereo partly drawn) [Compound 258a, 2-({4-[2-(4-fluorophenyl)-2-methyl-2H-1,3-benzodioxol-4-yl]piperidin-1-yl}methyl)-1-{[(2S)-oxetan-2-yl]methyl}-5-[5-(trifluoromethyl)-4H-1,2,4-triazol-3-yl]-1H-1,3-benzodiazole] | 0.16 nM |

Continued by falling EC50, values first:

| EC50 | SMILES |
| --- | --- |
| 0.11 nM | CC1(c2ccc(Cl)cc2F)Oc2cccc(C3CCN(Cc4nc5cc(-c6nnc(C(F)(F)F)[nH]6)c(F)cc5n4C[C@@H]4CCO4)CC3)c2O1 (stereo partly drawn) [Compound 248a, 2-({4-[2-(4-chloro-2-fluorophenyl)-2-methyl-2H-1,3-benzodioxol-4-yl]piperidin-1-yl}methyl)-6-fluoro-1-{[(2S)-oxetan-2-yl]methyl}-5-[5-(trifluoromethyl)-4H-1,2,4-triazol-3-yl]-1H-1,3-benzodiazole] |
| 0.11 nM | CC1(c2ccc(Cl)cc2F)Oc2cccc(C3CCN(Cc4nc5cc(-c6cn(CCS(C)(=O)=O)nn6)ccc5n4C[C@@H]4CCO4)CC3)c2O1 (stereo partly drawn) [Compound 250a, 2-({4-[2-(4-chloro-2-fluorophenyl)-2-methyl-2H-1,3-benzodioxol-4-yl]piperidin-1-yl}methyl)-5-[1-(2-methanesulfonylethyl)-1H-1,2,3-triazol-4-yl]-1-{[(2S)-oxetan-2-yl]methyl}-1H-1,3-benzodiazole] |
| 0.098 nM | CC1(c2ccc(Cl)cn2)Oc2cccc(C3CCN(Cc4nc5cc(-c6nnc(C(F)(F)F)[nH]6)ccc5n4C[C@@H]4CCO4)CC3)c2O1 (stereo partly drawn) [Compound 257a, 2-({4-[2-(5-chloropyridin-2-yl)-2-methyl-2H-1,3-benzodioxol-4-yl]piperidin-1-yl}methyl)-1-{[(2S)-oxetan-2-yl]methyl}-5-[5-(trifluoromethyl)-4H-1,2,4-triazol-3-yl]-1H-1,3-benzodiazole] |
| 0.093 nM | CO[C@H](C)Cn1c(CN2CCC(c3cccc4c3O[C@@](C)(c3ccc(Cl)cc3F)O4)CC2)nc2cc(-c3nnc(C(F)(F)F)[nH]3)cnc21 [Compound 247b, 4-[(2S)-2-(4-chloro-2-fluorophenyl)-2-methyl-2H-1,3-benzodioxol-4-yl]-1-({3-[(2R)-2-methoxypropyl]-6-[5-(trifluoromethyl)-4H-1,2,4-triazol-3-yl]-3H-imidazo[4,5-b]pyridin-2-yl}methyl)piperidine] |
| 0.074 nM | CC1(c2ccc(F)cc2F)Oc2cccc(C3CCN(Cc4nc5cc(-c6nnc(C(F)(F)F)[nH]6)ccc5n4C[C@@H]4CCO4)CC3)c2O1 (stereo partly drawn) [Compound 259a, 2-({4-[2-(2,4-difluorophenyl)-2-methyl-2H-1,3-benzodioxol-4-yl]piperidin-1-yl}methyl)-1-{[(2S)-oxetan-2-yl]methyl}-5-[5-(trifluoromethyl)-4H-1,2,4-triazol-3-yl]-1H-1,3-benzodiazole] |
| 0.069 nM | CC1(c2ccc(Cl)cc2F)Oc2cccc(C3CCN(Cc4nc5cc(-c6nnc(C(F)(F)F)[nH]6)cnc5n4CC4(C#N)CC4)CC3)c2O1 (stereo not drawn) [Compound 254a, 1-{[2-({4-[2-(4-chloro-2-fluorophenyl)-2-methyl-2H-1,3-benzodioxol-4-yl]piperidin-1-yl}methyl)-6-[5-(trifluoromethyl)-4H-1,2,4-triazol-3-yl]-3H-imidazo[4,5-b]pyridin-3-yl]methyl}cyclopropane-1-carbonitrile] |
| 0.066 nM | CSc1nnc(-c2ccc3c(c2)nc(CN2CCC(c4cccc5c4OC(C)(c4ccc(Cl)cc4F)O5)CC2)n3C[C@@H]2CCO2)[nH]1 (stereo partly drawn) [Compound 252a, 2-({4-[2-(4-chloro-2-fluorophenyl)-2-methyl-2H-1,3-benzodioxol-4-yl]piperidin-1-yl}methyl)-5-[5-(methylsulfanyl)-4H-1,2,4-triazol-3-yl]-1-{[(2S)-oxetan-2-yl]methyl}-1H-1,3-benzodiazole] |
| 0.052 nM | Cc1nnc(-c2ccc3c(c2)nc(CN2CCC(c4cccc5c4OC(C)(c4ccc(Cl)cc4F)O5)CC2)n3C[C@@H]2CCO2)[nH]1 (stereo partly drawn) [Compound 243a, 2-({4-[2-(4-chloro-2-fluorophenyl)-2-methyl-2H-1,3-benzodioxol-4-yl]piperidin-1-yl}methyl)-5-(5-methyl-4H-1,2,4-triazol-3-yl)-1-{[(2S)-oxetan-2-yl]methyl}-1H-1,3-benzodiazole] |
